According to patent EP4775208A1, “USE OF PRMT5 INHIBITOR IN TREATMENT OF TUMORS OR CANCERS” (Apeiron Therapeutics (Hong Kong) Ltd., priority 2023, dated 2025):

Experiments:
Format in all cases: cell-based
[1] = system: LU99 MTAP-overexpressing cells; test: Inhibition of proliferation of LU99 MTAP-overexpressing cells (CellTiter-Glo); conditions: cell proliferation, 6 days
Experimental: Test 4: Assay for Inhibitory Activity of Compounds against LU99 MTAP-Overexpressing Cell Proliferation
Materials and Cells: The LU99 MTAP-overexpressing cell line was purchased from Cobioer Biosciences (China). Cell culture media and fetal bovine serum (FBS) were purchased from Thermo Fisher Scientific (USA). 384-well plates were purchased from PerkinElmer (USA). The CellTiter-Glo assay kit was purchased from Promega (USA).
Cell Culture: LU99 MTAP-overexpressing cells were cultured in a medium supplemented with 10% fetal bovine serum (FBS) at 37°C with 5% CO2. Only cells in the logarithmic growth phase were used for experiments.
Cell Proliferation Inhibition Assay: The antiproliferative activity of the compounds against LU99 MTAP-overexpressing cells was assessed using the CellTiter-Glo assay kit. Cell suspensions were adjusted to the appropriate density and seeded into 384-well plates at a volume of 40 µL per well, then incubated overnight at 37°C with 5% CO2. Compounds (40 nL) were added to each well to achieve final concentrations ranging from 0 to 10,000 nM (starting concentration 10,000 nM, 2.5-fold serial dilutions, 10 dose points), with a final DMSO concentration of 0.2%. The cell plates were incubated at 37°C with 5% CO2 for 6 days. Subsequently, 40 µL of CellTiter-Glo reagent was added to measure cell viability.

SK-MEL-5 = test: Mini cell panel: inhibition of proliferation of SK-MEL-5 cells; conditions: Homo sapiens, MTAP (-/-)
Excerpt: (§1) Test 9: Mini Cell Panel: Assay for Inhibitory Activity of Compounds against Proliferation of 20 Tumor Cell Lines
(§2) Materials and Cells: Fifteen MTAP(-/-) cell lines and five MTAP wild-type cell lines were purchased from ATCC (USA). Cell culture media, fetal bovine serum (FBS), and penicillin-streptomycin were purchased from Thermo Fisher Scientific (USA). 384-well plates were purchased from PerkinElmer (USA). The CellTiter-Glo assay kit was purchased from Promega (USA). Paclitaxel was used as the control compound.

Aspc-1 = test: Mini cell panel: inhibition of proliferation of Aspc-1 cells
Excerpt: as §1, §2

A549 = test: Mini cell panel: inhibition of proliferation of A549 cells
Excerpt: as §1, §2

hERG ion channel = hERG ion channel (Homo sapiens, UniProt Q12809); test: hERG ion channel inhibition experiment (manual patch clamp, HEK293); conditions: HEK293 cells stably expressing hERG, n=2
hERG ion channel, sequence (Q12809 whole entry): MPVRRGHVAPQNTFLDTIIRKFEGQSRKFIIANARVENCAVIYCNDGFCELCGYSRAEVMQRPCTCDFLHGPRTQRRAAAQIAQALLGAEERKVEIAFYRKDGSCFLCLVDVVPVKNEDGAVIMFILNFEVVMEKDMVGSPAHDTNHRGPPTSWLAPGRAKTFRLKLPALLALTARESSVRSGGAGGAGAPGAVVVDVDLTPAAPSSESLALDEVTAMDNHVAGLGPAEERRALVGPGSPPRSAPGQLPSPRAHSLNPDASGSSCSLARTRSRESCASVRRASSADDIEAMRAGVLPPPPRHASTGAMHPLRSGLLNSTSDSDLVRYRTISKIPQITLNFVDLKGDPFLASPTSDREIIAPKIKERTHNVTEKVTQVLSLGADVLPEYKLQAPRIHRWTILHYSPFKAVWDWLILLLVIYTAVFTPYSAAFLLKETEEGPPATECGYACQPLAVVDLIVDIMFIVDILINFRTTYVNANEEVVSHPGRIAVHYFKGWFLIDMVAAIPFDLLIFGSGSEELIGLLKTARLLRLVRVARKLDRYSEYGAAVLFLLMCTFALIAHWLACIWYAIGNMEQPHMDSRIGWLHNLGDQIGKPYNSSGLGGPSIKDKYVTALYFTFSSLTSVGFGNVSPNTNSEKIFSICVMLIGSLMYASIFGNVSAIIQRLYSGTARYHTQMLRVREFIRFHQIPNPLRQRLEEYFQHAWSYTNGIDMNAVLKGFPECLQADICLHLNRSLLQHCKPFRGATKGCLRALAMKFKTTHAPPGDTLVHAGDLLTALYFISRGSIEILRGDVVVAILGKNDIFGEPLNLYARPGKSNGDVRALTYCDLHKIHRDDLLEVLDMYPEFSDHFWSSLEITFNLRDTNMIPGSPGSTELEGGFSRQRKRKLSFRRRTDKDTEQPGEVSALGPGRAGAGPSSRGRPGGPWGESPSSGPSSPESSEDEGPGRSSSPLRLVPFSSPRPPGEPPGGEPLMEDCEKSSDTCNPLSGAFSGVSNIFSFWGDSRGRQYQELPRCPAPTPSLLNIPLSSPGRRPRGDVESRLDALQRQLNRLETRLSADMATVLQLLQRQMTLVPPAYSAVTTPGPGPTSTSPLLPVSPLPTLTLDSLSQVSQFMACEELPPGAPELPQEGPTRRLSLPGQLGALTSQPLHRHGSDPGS
Experimental: III. hERG Ion Channel Inhibition Experiment
The compounds used in this experiment are specific embodiments of the present invention, with reference to compound AMG473 as an example from Amgen's patent WO 2022/169948A1, identified as example 473.
2. Cell Line and Cell Culture
Stably expressing hERG ion channel HEK293 cell line (Catalog: K1236) was purchased from Invitrogen. This cell line was cultured in a medium containing 85% DMEM, 10% dialyzed fetal bovine serum, 0.1 mM non-essential amino acid solution, 100 U/mL penicillin-streptomycin solution, 25 mM HEPES, 5 µg/mL blasticidin, and 400 µg/mL geneticin. […]
• 1) Place glass slides containing HEK293 cells in the perfusion chamber of the micro-manipulation station. • 2) Under an Olympus IX71 or IX73 inverted microscope, position suitable cells in the central field of view using a ×10 objective. […] The peak of the tail current represents the size of the hERG current. • 9) The hERG current induced by the test compound is continuously recorded for 120 seconds before administration to assess the stability of the tested cells in producing hERG currents. […] Record the last 5 hERG current values after the recorded current stabilizes, and take their average as the final current value at a specific concentration. […]

[2] = Homo sapiens, ASPC1, MTAP Wild type

Row | Compound | IC50 ([1]; Homo sapiens, Lu-99, 144 h) [nM] | IC50 (SK-MEL-5) [nM] | IC50 (Aspc-1; [2]) [nM] | IC50 (A549; Homo sapiens, A549, MTAP (-/-)) [nM] | also measured
1 | [2H]C([2H])([2H])N(C(=O)c1ccc2nc(N)c3cncn3c2c1)[C@@H]1COc2cc(C(F)(F)F)ccc21 [Example 16, (S)-4-amino-N-(methyl-d3)-N-(6-(trifluoromethyl)-2,3-dihydrobenzofuran-3-yl)imidaz o[1,5-a]quinoxaline-8-carboxamide] | 2480 | – | – | – | –
2 | CN(C(=O)c1cc2c(cn1)nc(N)c1cncn12)[C@@H]1COc2cc(C(F)(F)F)ccc21 [Example 4, (S)-4-amino-N-methy 1-N-(6-(trifluoromethy 1)-2,3-dihydrobenzofuran-3-yl)imidazo[1,5-a]pyrido[3,4-e]pyrazine-8-carboxamide] | – | > 1000 | 6600 | 20.2 | –
3 | (S)-4-amino-7-fluoro-N-methyl-N-(6-(triflu oromethyl)-2,3-dihydr obenzofuran-3-yl)imi dazo[1,5-a]quinoxalin e-8-carboxamide [Example 29] | – | – | – | – | IC50 (hERG ion channel): 11400 nM; IC50 [1]: 1490 nM; IC50 (Aspc-1; MTAP Wild type): > 10000 nM; IC50 (A549; MTAP (-/-)): 8.5 nM
4 | CN(C(=O)c1ccc2nc(N)c3cncn3c2c1)[C@@H]1COc2cc(C(F)(F)F)ccc21 [Example 107, (S)-4-amino-N-methy 1-N-(6-(trifluoromethy 1)-2,3-dihydrobenzofuran-3-yl)imidazo[1,5-a]quinoxaline-8-carboxamide] | 2360 | > 1000 | > 10000 | 69.1 | –
5 | [2H]C([2H])([2H])N(C(=O)c1cc2c(cc1F)nc(N)c1cncn12)[C@@H]1COc2cc(C(F)(F)F)ccc21 [Example 41, (S)-4-amino-7-fluoro-N-(methyl-d3)-N-(6-(trifluoromethyl)-2,3-di hydrobenzofuran-3-yl)imidazo[1,5-a]quinox aline-8-carboxamide] | 1640 | – | – | – | –
